Columns and labels:
[1] = Displacement of [3H]epibatidine from alpha6/4beta4 nicotinic receptor expressed in human HEK293 cells; type: cell-based
[2] = molecular target: T1, Neuronal acetylcholine receptor; alpha3/beta4 (Homo sapiens, UniProt P30926+P32297); assay: Agonist activity at alpha3beta4 nicotinic receptor expressed in human HEK cells assessed as intracellular calcium […] by FLIPR relative to control; type: functional, cell-based; conditions: HEK293
[3] = Agonist activity at human alpha6/4beta4 nicotinic receptor expressed in human HEK cells assessed as intracellular calcium […] by FLIPR; type: functional, cell-based, HEK293
[4] = molecular target: Acetylcholine receptor; alpha1/beta1/delta/gamma (Homo sapiens, UniProt P02708+P07510+P11230+Q07001); assay: Binding affinity to alpha-1-beta-gamma-delta nicotinic receptor; type: protein-complex assay
[5] = molecular target: T1, Neuronal acetylcholine receptor; alpha3/beta4; assay: Displacement of [3H]epibatidine from alpha3beta4 nicotinic receptor expressed in human HEK293 cells; type: cell-based
[6] = molecular target: Neuronal acetylcholine receptor; alpha4/beta2 (Homo sapiens, UniProt P17787+P43681); assay: Displacement of [3H]epibatidine from alpha4beta2 nicotinic receptor expressed in human HEK293 cells; type: cell-based
[7] = molecular target: T1, Neuronal acetylcholine receptor; alpha3/beta4; assay: Agonist activity at alpha3beta4 nicotinic receptor expressed in human HEK cells assessed as intracellular calcium efflux by FLIPR
[8] = Agonist activity at human alpha6/4beta4 nicotinic receptor expressed in human HEK cells assessed as intracellular calcium […] by FLIPR relative to control; type: functional, HEK293
[9] = molecular target: Neuronal acetylcholine receptor subunit alpha-7 (Homo sapiens, UniProt P36544); assay: Displacement of [3H]epibatidine from alpha7 nicotinic receptor expressed in human HEK293 cells; type: cell-based
[10] = molecular target: Voltage-gated inwardly rectifying potassium channel KCNH2 (Homo sapiens, UniProt Q12809); assay: Displacement of [3H]dofetilide from human ERG expressed in HEK293 cells; type: cell-based
[11] = Apparent permeability from apical to basolateral side of MDCK cells; type: ADME, cell-based, Canis lupus familiaris; conditions: dog
[12] = system: human MDR (P-glycoprotein); assay: Efflux ratio of permeability from basolateral to apical side over apical to basolateral side of MDCK cells expressing human MDR gene; type: ADME, cell-based, Canis lupus familiaris; conditions: dog, MDCK-MDR1
[13] = Homo sapiens, HEK293, read-out: EC50

T1 sequence (P30926 whole entry): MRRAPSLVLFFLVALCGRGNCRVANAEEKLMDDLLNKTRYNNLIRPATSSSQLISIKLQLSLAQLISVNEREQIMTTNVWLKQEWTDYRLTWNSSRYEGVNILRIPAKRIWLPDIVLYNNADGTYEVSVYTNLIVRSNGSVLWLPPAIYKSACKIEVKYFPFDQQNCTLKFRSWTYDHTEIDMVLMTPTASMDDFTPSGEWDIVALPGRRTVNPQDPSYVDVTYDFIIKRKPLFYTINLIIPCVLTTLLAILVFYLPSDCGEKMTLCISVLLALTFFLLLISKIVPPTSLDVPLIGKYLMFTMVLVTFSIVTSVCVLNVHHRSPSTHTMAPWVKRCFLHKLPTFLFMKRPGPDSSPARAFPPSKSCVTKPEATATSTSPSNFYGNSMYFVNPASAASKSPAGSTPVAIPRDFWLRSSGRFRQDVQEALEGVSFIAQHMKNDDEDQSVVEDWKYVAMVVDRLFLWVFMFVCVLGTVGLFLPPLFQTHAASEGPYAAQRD
T1 sequence (P32297 whole entry): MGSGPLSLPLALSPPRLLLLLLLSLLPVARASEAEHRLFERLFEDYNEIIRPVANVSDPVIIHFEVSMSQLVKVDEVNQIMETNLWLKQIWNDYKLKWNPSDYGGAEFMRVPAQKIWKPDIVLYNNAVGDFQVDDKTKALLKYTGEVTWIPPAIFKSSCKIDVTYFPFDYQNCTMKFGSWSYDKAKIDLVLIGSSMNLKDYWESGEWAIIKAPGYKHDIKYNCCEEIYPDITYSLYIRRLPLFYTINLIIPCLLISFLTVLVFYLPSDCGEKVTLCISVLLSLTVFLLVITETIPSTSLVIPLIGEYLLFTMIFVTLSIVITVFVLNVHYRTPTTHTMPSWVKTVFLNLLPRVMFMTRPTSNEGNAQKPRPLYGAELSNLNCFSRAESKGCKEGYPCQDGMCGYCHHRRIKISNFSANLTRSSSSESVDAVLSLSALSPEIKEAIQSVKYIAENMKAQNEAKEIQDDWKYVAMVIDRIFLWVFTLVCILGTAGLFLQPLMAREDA
Chain of Voltage-gated inwardly rectifying potassium channel KCNH2 (Q12809 whole entry): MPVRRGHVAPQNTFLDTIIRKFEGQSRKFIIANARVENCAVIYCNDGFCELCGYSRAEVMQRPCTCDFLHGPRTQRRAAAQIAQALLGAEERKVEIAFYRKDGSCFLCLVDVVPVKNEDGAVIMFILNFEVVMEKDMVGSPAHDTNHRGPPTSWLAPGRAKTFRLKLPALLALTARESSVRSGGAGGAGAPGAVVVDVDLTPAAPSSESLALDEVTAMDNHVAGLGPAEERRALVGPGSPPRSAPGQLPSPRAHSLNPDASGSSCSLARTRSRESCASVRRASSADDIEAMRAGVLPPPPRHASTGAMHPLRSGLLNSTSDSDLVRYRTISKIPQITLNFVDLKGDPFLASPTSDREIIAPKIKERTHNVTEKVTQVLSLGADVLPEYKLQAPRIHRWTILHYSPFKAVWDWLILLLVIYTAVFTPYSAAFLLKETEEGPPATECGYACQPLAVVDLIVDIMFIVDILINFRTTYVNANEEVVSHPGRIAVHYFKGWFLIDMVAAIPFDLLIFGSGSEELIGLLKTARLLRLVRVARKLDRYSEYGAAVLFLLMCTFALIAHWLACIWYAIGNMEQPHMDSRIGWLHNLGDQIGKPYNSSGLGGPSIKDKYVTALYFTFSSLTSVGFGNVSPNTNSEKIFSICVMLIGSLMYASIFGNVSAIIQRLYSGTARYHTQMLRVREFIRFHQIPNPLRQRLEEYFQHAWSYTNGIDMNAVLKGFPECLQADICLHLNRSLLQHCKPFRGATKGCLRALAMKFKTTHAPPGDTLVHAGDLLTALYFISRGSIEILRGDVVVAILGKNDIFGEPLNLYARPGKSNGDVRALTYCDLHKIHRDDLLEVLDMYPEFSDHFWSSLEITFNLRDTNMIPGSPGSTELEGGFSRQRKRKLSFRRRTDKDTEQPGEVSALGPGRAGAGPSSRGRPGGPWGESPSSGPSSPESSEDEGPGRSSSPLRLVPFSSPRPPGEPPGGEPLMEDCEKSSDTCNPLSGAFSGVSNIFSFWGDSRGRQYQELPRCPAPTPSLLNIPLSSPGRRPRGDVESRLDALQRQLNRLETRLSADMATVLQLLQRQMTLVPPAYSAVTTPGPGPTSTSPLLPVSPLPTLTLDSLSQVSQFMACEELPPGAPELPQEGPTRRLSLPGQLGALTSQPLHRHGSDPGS
Chain of Neuronal acetylcholine receptor subunit alpha-7 (P36544 whole entry): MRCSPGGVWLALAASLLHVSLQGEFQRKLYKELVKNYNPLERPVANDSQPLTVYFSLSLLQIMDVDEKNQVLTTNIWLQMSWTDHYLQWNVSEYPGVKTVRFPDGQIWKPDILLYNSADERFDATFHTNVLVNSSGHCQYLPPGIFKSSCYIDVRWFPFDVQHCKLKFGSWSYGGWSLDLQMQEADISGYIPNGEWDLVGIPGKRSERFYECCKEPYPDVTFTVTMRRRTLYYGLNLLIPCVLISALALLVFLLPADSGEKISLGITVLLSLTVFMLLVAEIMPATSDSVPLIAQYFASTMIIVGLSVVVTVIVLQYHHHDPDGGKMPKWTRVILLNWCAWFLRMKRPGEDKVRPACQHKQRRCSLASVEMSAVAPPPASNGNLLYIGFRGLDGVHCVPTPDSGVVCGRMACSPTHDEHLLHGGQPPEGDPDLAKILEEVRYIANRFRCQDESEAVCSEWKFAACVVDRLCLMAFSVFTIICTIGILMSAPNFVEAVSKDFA
Chain of Acetylcholine receptor; alpha1/beta1/delta/gamma (P02708 whole entry): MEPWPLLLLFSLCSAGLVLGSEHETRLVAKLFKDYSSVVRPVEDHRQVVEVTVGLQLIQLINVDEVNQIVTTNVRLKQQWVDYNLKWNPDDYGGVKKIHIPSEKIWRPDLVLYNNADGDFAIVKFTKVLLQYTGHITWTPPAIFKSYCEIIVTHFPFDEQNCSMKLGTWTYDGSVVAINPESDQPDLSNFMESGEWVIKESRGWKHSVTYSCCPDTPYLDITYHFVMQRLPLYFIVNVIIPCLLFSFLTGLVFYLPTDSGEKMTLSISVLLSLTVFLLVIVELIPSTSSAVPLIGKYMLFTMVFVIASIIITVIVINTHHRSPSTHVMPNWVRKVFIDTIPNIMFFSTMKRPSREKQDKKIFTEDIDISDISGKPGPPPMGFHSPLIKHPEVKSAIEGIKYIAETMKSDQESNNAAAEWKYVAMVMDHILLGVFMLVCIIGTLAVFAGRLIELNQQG
Chain of Acetylcholine receptor; alpha1/beta1/delta/gamma (P07510 whole entry): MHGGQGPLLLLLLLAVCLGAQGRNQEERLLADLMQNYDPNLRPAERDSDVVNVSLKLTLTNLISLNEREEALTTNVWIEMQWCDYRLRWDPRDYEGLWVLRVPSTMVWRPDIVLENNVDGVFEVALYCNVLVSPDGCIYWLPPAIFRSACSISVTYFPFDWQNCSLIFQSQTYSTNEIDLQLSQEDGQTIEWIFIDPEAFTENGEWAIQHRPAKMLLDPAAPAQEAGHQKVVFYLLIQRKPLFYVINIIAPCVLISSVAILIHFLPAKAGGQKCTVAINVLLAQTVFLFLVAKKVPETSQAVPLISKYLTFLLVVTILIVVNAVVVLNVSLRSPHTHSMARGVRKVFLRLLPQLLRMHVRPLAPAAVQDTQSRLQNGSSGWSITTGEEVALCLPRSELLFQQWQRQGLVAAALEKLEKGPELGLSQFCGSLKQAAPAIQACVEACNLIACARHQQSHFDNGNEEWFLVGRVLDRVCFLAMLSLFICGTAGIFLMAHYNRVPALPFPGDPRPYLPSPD
Chain of Acetylcholine receptor; alpha1/beta1/delta/gamma (P11230 whole entry): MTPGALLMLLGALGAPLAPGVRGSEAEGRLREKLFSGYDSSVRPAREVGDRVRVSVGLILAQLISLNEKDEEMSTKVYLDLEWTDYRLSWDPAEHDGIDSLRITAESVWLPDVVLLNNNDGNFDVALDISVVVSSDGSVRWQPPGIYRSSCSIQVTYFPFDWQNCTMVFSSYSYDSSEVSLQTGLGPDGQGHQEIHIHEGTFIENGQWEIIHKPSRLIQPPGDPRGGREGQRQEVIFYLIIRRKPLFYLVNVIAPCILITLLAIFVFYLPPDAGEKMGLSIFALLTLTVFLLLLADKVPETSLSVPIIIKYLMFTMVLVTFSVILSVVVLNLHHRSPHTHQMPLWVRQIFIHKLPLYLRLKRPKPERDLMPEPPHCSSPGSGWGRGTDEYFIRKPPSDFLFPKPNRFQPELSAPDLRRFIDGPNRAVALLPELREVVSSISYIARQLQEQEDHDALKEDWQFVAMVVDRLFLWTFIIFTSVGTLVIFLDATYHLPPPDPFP
Chain of Acetylcholine receptor; alpha1/beta1/delta/gamma (Q07001 whole entry): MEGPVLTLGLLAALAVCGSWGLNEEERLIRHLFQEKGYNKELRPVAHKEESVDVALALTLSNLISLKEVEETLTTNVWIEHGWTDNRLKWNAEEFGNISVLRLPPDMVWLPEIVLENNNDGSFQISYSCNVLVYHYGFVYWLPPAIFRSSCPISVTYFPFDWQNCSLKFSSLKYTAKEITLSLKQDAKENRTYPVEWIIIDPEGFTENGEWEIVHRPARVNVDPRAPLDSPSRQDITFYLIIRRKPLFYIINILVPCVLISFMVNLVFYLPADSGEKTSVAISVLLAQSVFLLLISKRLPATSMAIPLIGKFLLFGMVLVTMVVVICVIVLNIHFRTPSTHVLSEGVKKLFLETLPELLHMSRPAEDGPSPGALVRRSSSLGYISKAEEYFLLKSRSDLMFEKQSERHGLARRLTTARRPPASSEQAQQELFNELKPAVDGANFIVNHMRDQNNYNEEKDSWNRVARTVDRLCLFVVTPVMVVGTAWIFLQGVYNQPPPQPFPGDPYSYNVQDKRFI

Structure (SMILES) | Ki [1] [nM] | Efficacy [2] [%] | EC50 [3, 13] [nM] | Ki [4] [nM] | Ki [5] [nM] | Ki ([6]; read-out: Ki) [nM] | EC50 [7] [nM] | Efficacy [8] [%] | Ki [9] [nM] | Ki ([10]; hek293) | Papp A→B [11] [×10⁻⁶ cm/s] | efflux ratio [12] | Ki ([10]; read-out: Ki) [nM] | EC50 ([3]; hek293, read-out: EC50) [nM] | EC50 ([3]; hek293) | Ki ([6]; hek293)
CC(=O)Nc1cncc(-c2ccccc2O[C@H]2C[C@@H]3CNC[C@H]2C3)c1.Cl (racemic) | 17.1 | 100 | 35.4 | 530 | 9.53 | > 615 | 252 | 51 | > 15000 |  |  |  |  |  |  | 
Cl.Nc1cncc(-c2ccccc2O[C@H]2C[C@@H]3CNC[C@H]2C3)c1 (racemic) | 5.83 | 80.5 | 64.4 | > 15000 | 1.48 | > 575 | 33.9 | 107 | > 15000 |  |  |  |  |  |  | 
Cl.Oc1cncc(-c2ccccc2O[C@@H]2C[C@H]3CNC[C@@H]2C3)c1 | 7.16 | 52 |  | 8320 | 2.02 | 149 | 34.4 | 70 | > 15000 | Not Active | 2.66 | 3.5 |  |  |  | 
Cl.Fc1cncc(-c2ccccc2O[C@H]2C[C@@H]3CNC[C@H]2C3)c1 (racemic) | 10.1 | 84.5 | 248 | > 16900 | 2.17 | > 1500 | 316 | 45 | > 13500 | Not Active | 10 | 1.29 |  |  |  | 
CC(C)S(=O)(=O)Nc1cncc(-c2ccccc2O[C@H]2C[C@@H]3CNC[C@H]2C3)c1.Cl (racemic) | 0.202 | 57 | 98.5 | 4240 | 0.126 | 745 | 0.16 | 160 | 14600 | Not Active | 0.56 | 1.49 |  |  |  | 
CS(=O)(=O)Nc1cncc(-c2ccccc2O[C@H]2C[C@@H]3CNC[C@H]2C3)c1 (racemic) |  | 116 |  |  |  |  |  |  |  |  |  |  |  |  |  | 
Oc1cncc(-c2ccccc2O[C@H]2C[C@@H]3CNC[C@H]2C3)c1 |  | 118 |  |  |  |  |  |  |  |  |  |  |  |  |  | 
CN1CCC[C@H]1c1cccnc1 [NICOTINE] | 168 |  |  | 1480 |  |  |  |  |  |  |  |  |  |  |  | 
CS(=O)(=O)Nc1ccncc1-c1ccccc1O[C@H]1C[C@@H]2CNC[C@H]1C2.Cl (racemic) | 5.21 | 117 | 4.3 | > 15000 | 0.382 | 250 | 112 | 48 | 7590 |  |  |  |  |  |  | 
Cl.Oc1cncc(-c2ccccc2O[C@H]2C[C@@H]3CNC[C@H]2C3)c1 (racemic) | 0.425 |  |  | 5000 | 0.186 | 255 | 2.59 | 75 | 1580 |  | 4.05 | 5.84 | 1580 | 4.3 |  | 
Cl.Oc1ccncc1-c1ccccc1O[C@H]1C[C@@H]2CNC[C@H]1C2 (racemic) | 3.15 | 82 | 5 | > 15300 | 2.1 | > 419 | 16.3 | 91 | > 15000 |  |  |  |  |  |  | 
CCS(=O)(=O)Nc1cncc(-c2ccccc2O[C@H]2C[C@@H]3CNC[C@H]2C3)c1.Cl (racemic) | 0.313 | 108 | 0.37 | > 15000 | 0.149 | > 604 | 1.09 | 182 | 9870 | Not Active | 0.44 | 0.93 |  |  |  | 
Oc1cncc(-c2ccccc2O[C@H]2C[C@@H]3CNC[C@H]2C3)c1 (racemic) |  | 117 |  |  |  |  |  |  |  |  |  |  |  |  |  | 
c1cncc(-c2ccccc2O[C@@H]2C[C@H]3CNC[C@@H]2C3)c1 | 78.5 | 46 | 126 |  | 16.9 | > 614 |  |  |  |  |  |  |  |  |  | 
CS(=O)(=O)Nc1cncc(-c2ccccc2O[C@H]2C[C@@H]3CNC[C@H]2C3)c1 |  | 120 |  |  |  |  |  |  |  |  |  |  |  |  |  | 
Cl.Nc1ccncc1-c1ccccc1O[C@H]1C[C@@H]2CNC[C@H]1C2 (racemic) | 2.05 | 97 | 265 | 4430 | 0.957 | > 1040 | 33.6 | 61 |  |  |  |  |  |  |  | 
c1cncc(-c2ccccc2O[C@H]2C[C@@H]3CNC[C@H]2C3)c1 (racemic) |  | 45 |  |  |  |  |  |  |  |  |  |  |  |  |  | 
Cl.c1cncc(-c2ccccc2O[C@H]2C[C@@H]3CNC[C@H]2C3)c1 (racemic) | 3.8 |  | 53 |  | 1.3 | > 1310 | 57 | 32.5 |  |  | 30.3 | 1.75 | 2160 |  |  | 
Cl.Fc1ccncc1-c1ccccc1O[C@H]1C[C@@H]2CNC[C@H]1C2 (racemic) | 1.33 | 65 | 625 |  | 0.856 |  | 197 |  |  |  | 13.3 | 1.26 |  |  |  | 
c1cnc2cc3c(cc2n1)[C@@H]1CNC[C@H]3C1 [VARENICLINE] | 89 |  |  | 8200 |  |  |  |  |  |  |  |  |  |  |  | 
Cl.NC(=O)c1cncc(-c2ccccc2O[C@H]2C[C@@H]3CNC[C@H]2C3)c1 (stereo in doubt) | 12.5 | 102 |  | > 15000 | 3.79 | > 963 | 36.8 | 59.5 | > 15000 |  |  |  |  |  | Not Active | 
NC(=O)c1cncc(-c2ccccc2O[C@@H]2C[C@H]3CNC[C@@H]2C3)c1 (stereo in doubt) | 1130 |  |  |  | 496 |  |  |  |  |  |  |  |  |  |  | Not Active
COc1ccncc1-c1ccccc1O[C@H]1C[C@@H]2CNC[C@H]1C2.Cl (racemic) | 1.77 | 49 | > 30000 |  | 0.882 | 477 | < 100 | 23 |  |  |  |  |  |  |  | 
COc1cncc(-c2ccccc2O[C@H]2C[C@@H]3CNC[C@H]2C3)c1.Cl (racemic) | 9.01 | 11 | 28.9 |  | 94.1 | > 309 | 32.7 | <20 |  | Not Active | 24.4 | 1.76 |  |  |  | 
CS(=O)(=O)Nc1cncc(-c2ccccc2O[C@H]2C[C@@H]3CNC[C@H]2C3)c1.Cl (racemic) | 0.241 |  | 3.15 | > 13500 | 0.243 | > 424 | 2.99 | 230 | 4750 |  |  |  |  |  |  | 

Source: ChEMBL document CHEMBL1208792, “A novel series of [3.2.1] azabicyclic biaryl ethers as alpha3beta4 and alpha6/4beta4 nicotinic receptor agonists” (Bioorg Med Chem Lett, 2010)
